# Source: paper PMC5773651, “Customised in vitro model to detect human metabolism-dependent idiosyncratic drug-induced liver injury” (Archives of Toxicology, 2017)
# Where two headings read alike, the source gives them in different places. Marks after values point to notes of the source that are not given here.
# Columns and labels:
# HepG2 cells [1] = test: Cell viability (PI), IC50, control HepG2 cells; assay type: cell-based; settings: Homo sapiens; control non-transduced HepG2; 24 h; unit inferred, tested range in µM; read-out: IC50 (cell viability), C
# [2] = system: HepG2 cells transduced with AdCYP3A4; test: Cell viability (PI), IC50, AdCYP3A4-HepG2; assay type: cell-based; settings: Homo sapiens, unit inferred, tested range in µM
# Description: (§1) For subculturing purposes, cells were detached by treatment with 0.25% trypsin/0.02% EDTA at 37 °C. For the adenovirus infection studies, cells were seeded in 96-well plates (5000 cells/well) and adenovirus-containing medium was added 48 h later. After 24 h, cells were transferred to the adenovirus-free medium and cultured for an additional 24-h period prior to the incubations performed with the test chemicals. To optimise the expression of the functional enzymes in the adenovirus-transduced HepG2 (Ad-HepG2) cells, different doses (MOI, multiplicity of infection, defined as plaque formation units per cell) of each adenovirus were tested.
# (§2) The drugs included in the study were chosen based on previous information about their hepatotoxicity. Information on the potential mechanisms implicated in the toxicity of each compound and the major enzymes involved in their metabolism is summarised in Table 1. HepG2 or Ad-HepG2 (48 h post-infection) cells were exposed for 24 h to eight concentrations of the tested compounds. Each experimental condition was repeated independently three times (with three wells measured each time). The stock solutions of compounds were prepared in DMSO and were conveniently diluted in the culture medium to obtain the desired final concentrations. The final DMSO concentration in the culture medium was 0.5% (v/v), and the control cultures were treated with the same amount of solvent.
# (§3) Following treatments, cells were simultaneously loaded with several fluorescent dyes to measure multiple biomarkers of cell toxicity. […] Information about the probes is summarised in Supplementary Table S2.
# (§4) After incubating with dyes, cells were imaged by the Scan^R system (Olympus, Germany). Dyes were excited, and their fluorescence was monitored at the excitation and emission wavelengths at appropriate filter settings. The collected images were analysed using the Scan^R analysis module, which allows the simultaneous quantification of subcellular structures that are stained by different fluorescent probes.
# [3] = system: HepG2 cells transduced with AdCYP3A4; test: HCS hepatotoxicity assay (MEC, TR), AdCYP3A4-HepG2; assay type: cell-based, human; settings: 24 h; for TR: TR = 100 x Cmax/lowest MEC; for MEC Apoptosis / MEC Calcium / MEC MMP / MEC Mitochondrial superoxide / MEC ROS: unit not given, tested range in µM
# HepG2 cells [4] = settings: human, 24 h
# Description: as §1, §2, §3, §4
# [5] = cited from earlier work; for Bioactivation / Enzyme: major enzyme(s) involved in the bioactivation (denoted as *) or detoxification of the drug: previous information; for Toxicity (mechanisms of toxicity): ref Ashrafian et al. [2007], Donato et al. [2009], Fromenty and Pessayre [1997], Rolo et al. [2000], Tolosa et al. [2012b]
# [6] = system: HepG2 cells transduced with AdCYP2C9; test: Cell viability (PI), IC50, AdCYP2C9-HepG2; assay type: cell-based; settings: Homo sapiens, unit inferred, tested range in µM
# [7] = system: HepG2 cells transduced with AdCYP2C19; test: Cell viability (PI), IC50, AdCYP2C19-HepG2; assay type: cell-based; settings: Homo sapiens, unit inferred, tested range in µM
# Description: as §1, §2, §3, §4
# [8] = system: HepG2 cells co-transduced with AdCYP3A4 and AdCYP2C9; test: HCS hepatotoxicity assay (MEC, TR), AdCYP3A4 + AdCYP2C9 HepG2; assay type: cell-based, human; settings: 24 h; for TR: TR = 100 x Cmax/lowest MEC; for MEC Apoptosis / MEC Calcium / MEC MMP / MEC Mitochondrial superoxide / MEC ROS: unit not given, tested range in µM
# [9] = system: HepG2 cells co-transduced with AdCYP3A4 and AdUGT2B7; test: HCS hepatotoxicity assay (MEC, TR), AdCYP3A4 + AdUGT2B7 HepG2; assay type: cell-based, human; settings: 24 h; for TR: TR = 100 x Cmax/lowest MEC; for MEC Apoptosis / MEC Calcium / MEC MMP / MEC Mitochondrial superoxide / MEC ROS: unit not given, tested range in µM
# [10] = system: HepG2 cells transduced with CYP3A4 in the presence of CYP2C19; test: HCS hepatotoxicity assay (MEC, TR), AdCYP3A4 + AdCYP2C19 HepG2; assay type: cell-based, human; settings: CYP3A4-4X + CYP2C19-1X, 24 h
# Description: For all the compounds and studied parameters, the MEC led to at least a 20% variation in fluorescence intensity or in the corresponding morphological parameter compared to the untreated cultures.
# [11] = ref Atienzar et al. ([2014]), Garside et al. ([2014]), Tolosa et al. ([2012b]); cited from earlier work
# [12] = system: HepG2 cells transduced with AdCYP2C9; test: HCS hepatotoxicity assay (MEC, TR), AdCYP2C9-HepG2; assay type: cell-based, human; settings: 24 h; for TR: TR = 100 x Cmax/lowest MEC; for MEC Apoptosis / MEC Calcium / MEC MMP / MEC Mitochondrial superoxide / MEC ROS: unit inferred, tested range in µM
# Description: as §1, §2, §3, §4
# [13] = ADV CYP3A4 x1, 24 h, read-out: IC50 (cell viability), ADV dose x1
# [14] = ADV CYP3A4 x4, 24 h, read-out: IC50 (cell viability), ADV dose x4
# [15] = ADV CYP3A4 x10, 24 h, read-out: IC50 (cell viability), ADV dose x10
# [16] = ADV CYP2C9 x1, 24 h, read-out: IC50 (cell viability), ADV dose x1
# [17] = ADV CYP2C9 x4, 24 h, read-out: IC50 (cell viability), ADV dose x4
# [18] = ADV CYP2C9 x10, 24 h, read-out: IC50 (cell viability), ADV dose x10
# [19] = unit not given, tested range in µM
compound,measurement,setting,value
Cc1c(C)c2c(c(C)c1O)CCC(C)(COc1ccc(CC3SC(=O)NC3=O)cc1)O2 (stereo not drawn) [Troglitazone],IC50,HepG2 cells [1],213 µM
same,IC50,[2]; [13],86 µM
same,IC50,[2]; [14],76 µM
same,IC50,[2]; [15],< 50 µM
same,TR,[3]; AdCYP 3A4 1x,12.8
same,MEC Apoptosis,[3]; AdCYP 3A4 1x,100
same,MEC Calcium,[3]; AdCYP 3A4 1x,75
same,MEC MMP,[3]; AdCYP 3A4 1x,200
same,MEC Mitochondrial superoxide,[3]; AdCYP 3A4 1x,200
same,MEC ROS,[3]; AdCYP 3A4 1x,50
same,TR,[3]; AdCYP 3A4 4x,12.8
same,MEC Apoptosis,[3]; AdCYP 3A4 4x,75
same,MEC Calcium,[3]; AdCYP 3A4 4x,50
same,MEC MMP,[3]; AdCYP 3A4 4x,200
same,MEC Mitochondrial superoxide,[3]; AdCYP 3A4 4x,75
same,MEC ROS,[3]; AdCYP 3A4 4x,50
same,TR,[3]; AdCYP 3A4 10x,12.8
same,MEC Apoptosis,[3]; AdCYP 3A4 10x,50
same,MEC Calcium,[3]; AdCYP 3A4 10x,50
same,MEC MMP,[3]; AdCYP 3A4 10x,150
same,MEC Mitochondrial superoxide,[3]; AdCYP 3A4 10x,50
same,MEC ROS,[3]; AdCYP 3A4 10x,50
same,MEC Apoptosis,HepG2 cells [4],100 µM
same,MEC Calcium,HepG2 cells [4],100
same,MEC MMP,HepG2 cells [4],200
same,MEC Mitochondrial superoxide,HepG2 cells [4],200
same,MEC ROS,HepG2 cells [4],100
same,TR,HepG2 cells [4],6.4
same,Bioactivation,[5],Yes
same,Enzyme: major enzyme(s) involved in the bioactivation (denoted as *) or detoxification of the drug,[5],CYP3A4*
same,Toxicity (mechanisms of toxicity),[5],"MI, OS"
same,DILI category,[5]; ref Gustafsson et al. ([2014]),Severe
O=C(O)Cc1ccccc1Nc1c(Cl)cccc1Cl [Diclofenac],IC50,HepG2 cells [1],167 µM
same,IC50,[6]; [16],42.1 µM
same,IC50,[6]; [17],51.6 µM
same,IC50,[6]; [18],15.5 µM
same,IC50,"[7]; ADV CYP2C19 x1, 24 h, read-out: IC50 (cell viability), ADV dose x1",140 µM
same,IC50,"[7]; ADV CYP2C19 x4, 24 h, read-out: IC50 (cell viability), ADV dose x4",158 µM
same,IC50,"[7]; ADV CYP2C19 x10, 24 h, read-out: IC50 (cell viability), ADV dose x10",11.5 µM
same,IC50,[2]; [13],126 µM
same,IC50,[2]; [14],99 µM
same,IC50,[2]; [15],2.8 µM
same,TR,[3]; AdCYP 3A4 1x,42
same,MEC Apoptosis,[3]; AdCYP 3A4 1x,125
same,MEC Calcium,[3]; AdCYP 3A4 1x,10
same,MEC MMP,[3]; AdCYP 3A4 1x,125
same,MEC Mitochondrial superoxide,[3]; AdCYP 3A4 1x,50
same,MEC ROS,[3]; AdCYP 3A4 1x,10
same,TR,[3]; AdCYP 3A4 4x,84
same,MEC Apoptosis,[3]; AdCYP 3A4 4x,10
same,MEC Calcium,[3]; AdCYP 3A4 4x,10
same,MEC MMP,[3]; AdCYP 3A4 4x,125
same,MEC Mitochondrial superoxide,[3]; AdCYP 3A4 4x,5
same,MEC ROS,[3]; AdCYP 3A4 4x,5
same,MEC Apoptosis,HepG2 cells [4],125 µM
same,MEC Calcium,HepG2 cells [4],50
same,MEC MMP,HepG2 cells [4],250
same,MEC Mitochondrial superoxide,HepG2 cells [4],125
same,MEC ROS,HepG2 cells [4],50
same,TR,HepG2 cells [4],8.4
same,TR,[8]; CYP3A4-1X + CYP2C9-1X,84
same,MEC Apoptosis,[8]; CYP3A4-1X + CYP2C9-1X,125
same,MEC Calcium,[8]; CYP3A4-1X + CYP2C9-1X,10
same,MEC MMP,[8]; CYP3A4-1X + CYP2C9-1X,125
same,MEC Mitochondrial superoxide,[8]; CYP3A4-1X + CYP2C9-1X,50
same,MEC ROS,[8]; CYP3A4-1X + CYP2C9-1X,5
same,TR,[8]; CYP3A4-4X + CYP2C9-1X,84
same,MEC Apoptosis,[8]; CYP3A4-4X + CYP2C9-1X,10
same,MEC Calcium,[8]; CYP3A4-4X + CYP2C9-1X,10
same,MEC MMP,[8]; CYP3A4-4X + CYP2C9-1X,125
same,MEC Mitochondrial superoxide,[8]; CYP3A4-4X + CYP2C9-1X,5
same,MEC ROS,[8]; CYP3A4-4X + CYP2C9-1X,5
same,TR,[9]; CYP3A4-1X + UGT2B7,84
same,MEC Apoptosis,[9]; CYP3A4-1X + UGT2B7,5
same,MEC Calcium,[9]; CYP3A4-1X + UGT2B7,10
same,MEC MMP,[9]; CYP3A4-1X + UGT2B7,50
same,MEC Mitochondrial superoxide,[9]; CYP3A4-1X + UGT2B7,5
same,MEC ROS,[9]; CYP3A4-1X + UGT2B7,5
same,TR,[9]; CYP3A4-4X + UGT2B7,84
same,MEC Apoptosis,[9]; CYP3A4-4X + UGT2B7,5
same,MEC Calcium,[9]; CYP3A4-4X + UGT2B7,5
same,MEC MMP,[9]; CYP3A4-4X + UGT2B7,50
same,MEC Mitochondrial superoxide,[9]; CYP3A4-4X + UGT2B7,5
same,MEC ROS,[9]; CYP3A4-4X + UGT2B7,5
same,TR,[10]; TR = 100 x Cmax/lowest MEC,42
same,MEC Apoptosis,[10]; [19],50
same,MEC Calcium,[10]; [19],50
same,MEC MMP,[10]; [19],125
same,MEC Mitochondrial superoxide,[10]; [19],10
same,MEC ROS,[10]; [19],10
same,Cmax,[11],4.2 µM
O=C(O)COc1ccc(C(=O)c2cccs2)c(Cl)c1Cl [Tienilic acid],IC50,HepG2 cells [1],> 1200 µM
same,IC50,[6]; [16],> 1200 µM
same,IC50,[6]; [17],1160 µM
same,IC50,[6]; [18],846 µM
same,TR,[12]; AdCYP 2C9 1x,13.8
same,MEC Apoptosis,[12]; AdCYP 2C9 1x,600 µM
same,MEC Calcium,[12]; AdCYP 2C9 1x,600 µM
same,MEC MMP,[12]; AdCYP 2C9 1x,> 1200 µM
same,MEC Mitochondrial superoxide,[12]; AdCYP 2C9 1x,600 µM
same,MEC ROS,[12]; AdCYP 2C9 1x,800 µM
same,TR,[12]; AdCYP 2C9 4x,20.7
same,MEC Apoptosis,[12]; AdCYP 2C9 4x,400 µM
same,MEC Calcium,[12]; AdCYP 2C9 4x,400 µM
same,MEC MMP,[12]; AdCYP 2C9 4x,> 1200 µM
same,MEC Mitochondrial superoxide,[12]; AdCYP 2C9 4x,400 µM
same,MEC ROS,[12]; AdCYP 2C9 4x,600 µM
same,TR,[12]; AdCYP 2C9 10x,41.3
same,MEC Apoptosis,[12]; AdCYP 2C9 10x,200 µM
same,MEC Calcium,[12]; AdCYP 2C9 10x,200 µM
same,MEC MMP,[12]; AdCYP 2C9 10x,> 1200 µM
same,MEC Mitochondrial superoxide,[12]; AdCYP 2C9 10x,400 µM
same,MEC ROS,[12]; AdCYP 2C9 10x,400 µM
same,MEC Apoptosis,HepG2 cells [4],1200 µM
same,MEC Calcium,HepG2 cells [4],800
same,MEC MMP,HepG2 cells [4],>1200
same,MEC Mitochondrial superoxide,HepG2 cells [4],800
same,MEC ROS,HepG2 cells [4],1200
same,TR,HepG2 cells [4],10.3
same,Cmax,[11],82.7 µM
same,Bioactivation,[5],Yes
same,Enzyme: major enzyme(s) involved in the bioactivation (denoted as *) or detoxification of the drug,[5],CYP2C9*
same,Toxicity (mechanisms of toxicity),[5],"CB, OS"
